Experimental data as given in patent US7902226B2, “Dehalogeno-compounds” (Daiichi Pharmaceutical Co., Ltd., priority 2000, dated 2011).
≈ marks a conversion by molar mass, not a printed value.

What was measured:
[1] = tested on: Str. pneumoniae J24; assay: Antibacterial activity (MIC), standard method of the Japan Society of Chemotherapy; assay type: cell-based; settings: Streptococcus pneumoniae
Experimental: (§1) Antibacterial activities of the compounds of this invention were measured in accordance to the standard method designated by the Japan Society of Chemotherapy, with the results shown as MIC values (microgram/ml) units in the following table. For comparison with the MIC values of the compounds of this invention, MIC values of levofloxacin (LVFX), ciprofloxacin (CPFX) and 7-[3-(R)-(1-aminocyclopropyl)pyrrolidin-1-yl]-6-fluoro-1-[2-(S)-fluoro-1-(R)-cyclopropyl]-8-methyl-1,4-dihydro-4-oxoquinoline-3-carboxylic acid (Reference drug 1), which is described in PCT/JP96/00208, are also shown in the table.

[2] = tested on: Ps. maltophilia, IID-1275; assay: as above; assay type: cell-based; settings: Stenotrophomonas maltophilia, IID1275
Experimental: as §1

[3] = tested on: S. aureus, 209P; assay: as above; assay type: cell-based; settings: Staphylococcus aureus
Experimental: as §1

[4] = tested on: Str. pyogenes, G-36; assay: as above; assay type: cell-based; settings: Streptococcus pyogenes, G36
Experimental: as §1

[5] = tested on: Ser. marcescens, 10100; assay: as above; assay type: cell-based; settings: Serratia marcescens
Experimental: as §1

[6] = tested on: S. aureus, 870307; assay: as above; assay type: cell-based; settings: Staphylococcus aureus
Experimental: as §1

[7] = tested on: Ps. aeruginosa, 32121; assay: as above; assay type: cell-based; settings: Pseudomonas aeruginosa
Experimental: as §1

[8] = tested on: Str. faecalis, ATCC 19433; assay: as above; assay type: cell-based; settings: Enterococcus faecalis, ATCC19433
Experimental: as §1

[9] = tested on: K. pneumoniae, Type 1; assay: as above; assay type: cell-based; settings: Klebsiella pneumoniae, TYPE1
Experimental: as §1

[10] = tested on: S. epidermidis, 56500; assay: as above; assay type: cell-based; settings: Staphylococcus epidermidis
Experimental: as §1

[11] = tested on: E. coli, NIHJ; assay: as above; assay type: cell-based; settings: Escherichia coli
Experimental: as §1

[12] = tested on: S. flexneri, 2A 5503; assay: as above; assay type: cell-based; settings: Shigella flexneri, 2A5503
Experimental: as §1

[13] = tested on: Pr. vulgalis, 08601; assay: as above; assay type: cell-based
Experimental: as §1

[14] = tested on: Ps. aeruginosa, 32104; assay: as above; assay type: cell-based; settings: Pseudomonas aeruginosa
Experimental: as §1

Structure (SMILES) | melting point | MIC [1] | MIC [2] | MIC [3] | MIC [4] | MIC [5] | MIC [6] | MIC [7] | MIC [8] | MIC [9] | MIC [10] | MIC [11] | MIC [12] | MIC [13] | MIC [14]
CCNC1([C@@H]2CCN(c3ccc4c(=O)c(C(=O)O)cn([C@@H]5C[C@@H]5F)c4c3C)C2)CC1 [Example 14, 7-[3-(R)-[1-(ethylamino)cyclopropyl]pyrrolidin-1-yl]-1-[2-(S)-fluoro-1-(R)-cyclopropyl]-8-methyl-1,4-dihydro-4-oxoquinoline-3-carboxylic acid] | 191 to 194 °C | ≤ 3 ng/mL | 0.2 µg/mL (≈ 0.484 µM) | ≤ 3 ng/mL | ≤ 3 ng/mL | 0.1 µg/mL (≈ 0.242 µM) | 0.012 µg/mL (≈ 0.029 µM) | 0.05 µg/mL (≈ 0.121 µM) | 0.025 µg/mL (≈ 0.0605 µM) | 0.05 µg/mL (≈ 0.121 µM) | 6 ng/mL (≈ 0.0145 µM) | ≤ 3 ng/mL | 6 ng/mL (≈ 0.0145 µM) | 0.012 µg/mL (≈ 0.029 µM) | 0.1 µg/mL (≈ 0.242 µM)
CNC1([C@@H]2CCN(c3ccc4c(=O)c(C(=O)O)cn(C5CC5)c4c3C)C2)CC1 [Example 15, 1-(cyclopropyl)-8-methyl-7-[3-(R)-[1-(methylamino)cyclopropyl]pyrrolidin-1-yl]-1,4-dihydro-4-oxoquinoline-3-carboxylic acid] | 190 to 192 °C | ≤ 3 ng/mL | 0.2 µg/mL (≈ 0.524 µM) | ≤ 3 ng/mL | ≤ 3 ng/mL | 0.1 µg/mL (≈ 0.262 µM) | 0.025 µg/mL (≈ 0.0655 µM) | 0.05 µg/mL (≈ 0.131 µM) | 0.025 µg/mL (≈ 0.0655 µM) | 0.025 µg/mL (≈ 0.0655 µM) | 6 ng/mL (≈ 0.0157 µM) | ≤ 3 ng/mL | 6 ng/mL (≈ 0.0157 µM) | 0.012 µg/mL (≈ 0.0315 µM) | 0.1 µg/mL (≈ 0.262 µM)
